From ChEMBL document CHEMBL3046396, “Synthesis and insecticidal evaluation of N-tert-butyl-N'-thio[1-(6-chloro-3-pyridylmethyl)-2-nitroiminoimidazolidine]-N,N'-diacylhydrazines” (2010)
The source made the active and inactive calls. No cut-off for these calls is given here.

Tests used:
Mythimna separata [1] = test: Larvicidal activity against fourth-instar larval stage of Mythimna separata (Oriental armyworm) in compound-pretreated corn leaves assessed as mortality at 100 mg/l after 4 days; format: functional
Mythimna separata [2] = test: Larvicidal activity against fourth-instar larval stage of Mythimna separata (Oriental armyworm) in compound-pretreated corn leaves assessed as mortality at 200 mg/l after 4 days; format: functional
Aphis fabae [3] = test: Insecticidal activity against apterous adult stage of Aphis fabae (black bean aphids) in soybean tender shoots assessed as induction of premature, abnormal and lethal larva moult at 10 mg/l treated for 5 secs measured after 3 days by modified FAO dip test; format: functional, organism-based
Mythimna separata [4] = test: Larvicidal activity against fourth-instar larval stage of Mythimna separata (Oriental armyworm) in compound-pretreated corn leaves assessed as mortality at 50 mg/l after 4 days; format: functional
Mythimna separata [5] = test: Larvicidal activity against fourth-instar larval stage of Mythimna separata (Oriental armyworm) in compound-pretreated corn leaves assessed as mortality at 10 mg/l after 4 days; format: functional
Aphis fabae [6] = test: Insecticidal activity against apterous adult stage of Aphis fabae ( black bean aphids) in soybean tender shoots assessed as death rate at 200 mg/l treated for 5 secs measured after 48 hr by modified FAO dip test; format: functional
Aphis fabae [7] = test: Insecticidal activity against apterous adult stage of Aphis fabae (black bean aphids) in soybean tender shoots assessed as mortality at 200 mg/l treated for 5 secs measured after 2 hr by modified FAO dip test; format: functional, organism-based
Mythimna separata [8] = test: Larvicidal activity against fourth-instar larval stage of Mythimna separata (Oriental armyworm) in compound-pretreated corn leaves assessed as mortality at 25 mg/l after 4 days; format: functional
Mythimna separata [9] = test: Larvicidal activity against fourth-instar larval stage of Mythimna separata (Oriental armyworm) in compound-pretreated corn leaves assessed as mortality at 500 mg/l after 4 days; format: functional
Mythimna separata [10] = test: Larvicidal activity against fourth-instar larval stage of Mythimna separata (Oriental armyworm) in compound-pretreated corn leaves assessed as mortality at 5 mg/l after 4 days; format: functional

Compound	mortality at 100 µg/mL (Mythimna separata [1])	mortality at 200 µg/mL (Mythimna separata [2])	Activity (Aphis fabae [3])	mortality at 50 µg/mL (Mythimna separata [4])	mortality at 10 µg/mL (Mythimna separata [5])	Activity (Aphis fabae [6])	Activity (Aphis fabae [7])	mortality at 25 µg/mL (Mythimna separata [8])	mortality at 500 µg/mL (Mythimna separata [9])	mortality at 5 µg/mL (Mythimna separata [10])
CC(C)(C)N(C(=O)c1ccccc1Cl)N(SN1CCN(Cc2ccc(Cl)nc2)/C1=N/[N+](=O)[O-])C(=O)c1ccccc1	50%	60%	Active	30%	0%	84%	Active	10%	100%	–
COc1ccccc1C(=O)NN(C(=O)c1ccccc1OC)C(C)(C)C	–	70%	Active	–	–	0%	–	–	10%	–
O=[N+]([O-])/N=C1\NCCN1Cc1ccc(Cl)nc1 [IMIDACLOPRID]	60%	100%	–	30%	10%	100%	Active	20%	–	–
COc1ccc(C(=O)NN(C(=O)c2ccc(OC)cc2)C(C)(C)C)cc1	10%	40%	Active	0%	–	22%	–	–	95%	–
CC(C)(C)N(C(=O)c1cccc(Cl)c1)N(SN1CCN(Cc2ccc(Cl)nc2)/C1=N/[N+](=O)[O-])C(=O)c1ccccc1	70%	80%	Active	25%	–	86%	Active	0%	100%	–
CC(C)(C)N(NC(=O)c1ccccc1)C(=O)c1ccccc1Cl	–	–	Active	100%	75%	18%	–	90%	–	0%
Cc1cc(C)cc(C(=O)N(N(SN2CCN(Cc3ccc(Cl)nc3)/C2=N/[N+](=O)[O-])C(=O)c2ccccc2)C(C)(C)C)c1	55%	85%	Active	10%	–	80%	Active	0%	95%	–
CC(C)(C)N(NC(=O)c1ccccc1)C(=O)c1ccc(Cl)cc1	–	–	Active	100%	25%	26%	–	100%	–	0%
CC(C)(C)N(NC(=O)c1ccccc1)C(=O)c1cccc(Cl)c1	100%	–	Active	95%	0%	12%	–	45%	–	–
CCc1ccc(C(=O)NN(C(=O)c2cc(C)cc(C)c2)C(C)(C)C)cc1 [TEBUFENOZIDE]	–	–	Active	–	100%	0%	–	–	–	70%
COc1ccc(C(=O)N(SN2CCN(Cc3ccc(Cl)nc3)/C2=N/[N+](=O)[O-])N(C(=O)c2ccc(OC)cc2)C(C)(C)C)cc1	40%	70%	Active	0%	–	87%	Active	–	100%	–
Cc1cc(C)cc(C(=O)NN(C(=O)c2cc(C)cc(C)c2)C(C)(C)C)c1	–	–	Active	95%	10%	10%	–	70%	–	–
COc1ccccc1C(=O)N(NC(=O)c1ccccc1)C(C)(C)C	–	–	Active	100%	10%	32%	–	90%	–	0%
Cc1cc(C)cc(C(=O)N(NC(=O)c2ccccc2)C(C)(C)C)c1	–	–	Active	100%	10%	12%	–	60%	–	–
CC(C)(C)N(C(=O)c1ccc(Cl)cc1)N(SN1CCN(Cc2ccc(Cl)nc2)/C1=N/[N+](=O)[O-])C(=O)c1ccccc1	70%	80%	Active	40%	–	87%	Active	0%	100%	–
CCc1ccc(C(=O)N(SN2CCN(Cc3ccc(Cl)nc3)/C2=N/[N+](=O)[O-])N(C(=O)c2cc(C)cc(C)c2)C(C)(C)C)cc1	–	–	Active	100%	90%	53%	Active	100%	–	70%
CC(C)(C)N(NC(=O)c1ccccc1)C(=O)c1ccccc1 [RH-5849]	–	–	Active	100%	0%	0%	–	70%	–	–
Cc1cc(C)cc(C(=O)N(SN2CCN(Cc3ccc(Cl)nc3)/C2=N/[N+](=O)[O-])N(C(=O)c2cc(C)cc(C)c2)C(C)(C)C)c1	50%	70%	Active	25%	0%	89%	Active	10%	100%	–
COc1ccccc1C(=O)N(SN1CCN(Cc2ccc(Cl)nc2)/C1=N/[N+](=O)[O-])N(C(=O)c1ccccc1OC)C(C)(C)C	40%	70%	Active	10%	–	91%	Active	0%	80%	–
COc1ccccc1C(=O)N(N(SN1CCN(Cc2ccc(Cl)nc2)/C1=N/[N+](=O)[O-])C(=O)c1ccccc1)C(C)(C)C	20%	40%	Active	0%	–	92%	Active	–	90%	–
COc1ccc(C(=O)N(NC(=O)c2ccccc2)C(C)(C)C)cc1	–	0%	Active	–	–	0%	–	–	60%	–
COc1ccc(C(=O)N(N(SN2CCN(Cc3ccc(Cl)nc3)/C2=N/[N+](=O)[O-])C(=O)c2ccccc2)C(C)(C)C)cc1	20%	70%	Active	0%	–	95%	Active	–	80%	–
CC(C)(C)N(C(=O)c1ccccc1)N(SN1CCN(Cc2ccc(Cl)nc2)/C1=N/[N+](=O)[O-])C(=O)c1ccccc1	0%	80%	Active	–	–	100%	Active	–	100%	–
